# Patent US20230381157A1, “RIFABUTIN FOR THE TREATMENT OF ACINETOBACTER BAUMANNII” (University of Southern California, priority 2018, published 2023)
# “Also recorded” adds a separate entry of the source. Where two headings read alike, the source gives them in different places.
# How the values were obtained:
# [1] = system: A. baumannii; experiment: MIC, broth microdilution, A. baumannii clinical isolates / strain panel; type: cell-based, Acinetobacter baumannii; settings: for MIC50 / MIC90: A. baumannii strain panel
# [2] = system: S. aureus LAC; experiment: microbe, parasite or virus in culture; type: cell-based; settings: Staphylococcus aureus
# [3] = system: A. baumannii; type: cell-based, Acinetobacter baumannii
# [4] = system: A. baumannii HUMC1; type: in vivo, mouse
# [5] = system: Acinetobacter baumannii; experiment: Galleria mellonella infection model; type: in vivo
# [6] = system: A. baumannii HUMC1; experiment: Time kill assay in RPMI with or without amino acids; type: cell-based, Acinetobacter baumannii; settings: RPMI alone vs RPMI with amino acids; 8 and 24 hrs
smiles,measurement,setting,value
CO[C@H]1/C=C/O[C@@]2(C)Oc3c(C)c(O)c4c(c3C2=O)C2=NC3(CCN(CC(C)C)CC3)NC2=C(NC(=O)/C(C)=C\C=C\[C@H](C)[C@H](O)[C@@H](C)[C@@H](O)[C@@H](C)[C@H](OC(C)=O)[C@@H]1C)C4=O [rifabutin],Rifabutin MIC,"[1]; AB307-0294, MHII",6.25 µg/mL
same,Rifabutin MIC,"[1]; AB307-0294, RPMI",< 0.05 µg/mL
same,Rifabutin MIC,"[1]; AB15827, MHII",3.13 µg/mL
same,Rifabutin MIC,"[1]; AB15827, RPMI",0.2 µg/mL
same,Rifabutin MIC,"[1]; ARLG-1314, MHII",6.25 µg/mL
same,Rifabutin MIC,"[1]; ARLG-1314, RPMI",< 0.05 µg/mL
same,Rifabutin MIC,"[1]; ARLG-1777, MHII",6.25 µg/mL
same,Rifabutin MIC,"[1]; ARLG-1777, RPMI",3.13 µg/mL
same,Rifabutin MIC,"[1]; ARLG-1915, MHII",3.13 µg/mL
same,Rifabutin MIC,"[1]; ARLG-1915, RPMI",0.1 µg/mL
same,Rifabutin MIC,"[1]; ATCC 17978, MHII",3.12 µg/mL
same,Rifabutin MIC,"[1]; ATCC 17978, RPMI",< 0.05 µg/mL
same,MIC,"[1]; Acinetobacter baumannii, A. baumannii (strain not named), MHII",4 µg/mL
same,MIC,"[1]; Acinetobacter baumannii, A. baumannii (strain not named), RPMI with serum",0.031 µg/mL
same,MIC,"[1]; Acinetobacter baumannii, A. baumannii VA-AB21, MHII",3.12 µg/mL
same,MIC,"[1]; Acinetobacter baumannii, A. baumannii VA-AB21, RPMI",0.391 µg/mL
same,MIC50,"[1]; Acinetobacter baumannii, CAMHB",3.13 µg/mL
same,MIC90,"[1]; Acinetobacter baumannii, CAMHB",6.25 µg/mL
same,MIC50,"[1]; Acinetobacter baumannii, RPMI",0.39 µg/mL
same,MIC90,"[1]; Acinetobacter baumannii, RPMI",3.13 µg/mL
same,MIC,"[1]; Acinetobacter baumannii, ATCC17978, A. baumannii ATCC17978 and HUMC1, MHII",2 µg/mL
same,MIC,"[1]; Acinetobacter baumannii, ATCC17978, A. baumannii ATCC17978 and HUMC1, RPMI",< 0.0625 µg/mL
same,fold lower MIC in RPMI than in Mueller-Hinton-based medium (CAMHB),"[1]; Acinetobacter baumannii, up to",up to 200 fold
same,Rifabutin MIC,"[1]; HUMC6, MHII",25 µg/mL
same,Rifabutin MIC,"[1]; HUMC6, RPMI",3.13 µg/mL
same,Rifabutin MIC,"[1]; HUMC10, MHII",12.5 µg/mL
same,Rifabutin MIC,"[1]; HUMC10, RPMI",< 0.05 µg/mL
same,Rifabutin MIC,"[1]; LAC -- 4, MHII",0.78 µg/mL
same,Rifabutin MIC,"[1]; LAC -- 4, RPMI",1.56 µg/mL
same,Rifabutin MIC,"[1]; LACUSC-01, MHII",6.25 µg/mL
same,Rifabutin MIC,"[1]; LACUSC-01, RPMI",< 0.05 µg/mL
same,Rifabutin MIC,"[1]; NIH1, MHII",3.13 µg/mL
same,Rifabutin MIC,"[1]; NIH1, RPMI",3.13 µg/mL
same,Rifabutin MIC,"[1]; UH118, MHII",3.13 µg/mL
same,Rifabutin MIC,"[1]; UH118, RPMI",0.2 µg/mL
same,Rifabutin MIC,"[1]; UH516, MHII",> 25 µg/mL
same,Rifabutin MIC,"[1]; UH516, RPMI",> 25 µg/mL
same,Rifabutin MIC,"[1]; UH2207, MHII",6.25 µg/mL
same,Rifabutin MIC,"[1]; UH2207, RPMI",3.13 µg/mL
same,Rifabutin MIC,"[1]; UH6507, MHII",3.13 µg/mL
same,Rifabutin MIC,"[1]; UH6507, RPMI",0.39 µg/mL
same,Rifabutin MIC,"[1]; VA-AB21, MHII",3.12 µg/mL
same,Rifabutin MIC,"[1]; VA-AB21, RPMI",0.391 µg/mL
same,Rifabutin MIC,"[1]; VA-AB74, MHII",6.25 µg/mL
same,Rifabutin MIC,"[1]; VA-AB74, RPMI",3.13 µg/mL
same,MIC,[2]; MHII,0.012 µg/mL
same,MIC,[2]; RPMI,0.025 µg/mL
same,Mutation Frequency,"[3]; A. baumannii ABNIH1, MHII",8.85E−09
same,Mutation Frequency,"[3]; A. baumannii ABNIH1, TSA",5.95E−09
same,Mutation Frequency,"[3]; A. baumannii ATCC17978, MHII",5.72E−09
same,Mutation Frequency,"[3]; A. baumannii ATCC17978, TSA",8.49E−10
same,Mutation Frequency,"[3]; A. baumannii HUMC1, MHII",2.20E−09
same,Mutation Frequency,"[3]; A. baumannii HUMC1, TSA",1.28E−08
same,Mutation Frequency,"[3]; A. baumannii LAC-4, MHII",1.29E−08
same,Mutation Frequency,"[3]; A. baumannii LAC-4, TSA",7.41E−09
same,survival,"[4]; IV infection, 10 mg/kg/day for 3 days, oral gavage, 10 mg/kg/day",improved survival
same,CFUs in blood,"[4]; IV infection, 10 mg/kg/day for 3 days, oral gavage, at 1 hr",significantly lower CFUs in the blood
same,CFUs in blood,"[4]; IV infection, 10 mg/kg/day for 3 days, oral gavage, at 24 hrs, 10 mg/kg/day",significantly lower CFUs in the lung
same,CFUs in blood,"[4]; IV infection, 10 mg/kg/day for 3 days, oral gavage, at 24 hrs, listed as RBT, 10 mg/kg/day",significantly lower CFUs in the blood; also recorded: significantly reduced CFUs
same,survival,"[4]; IV infection, 10 mg/kg/day for 3 days, oral gavage, listed as RBT, 10 mg/kg/day",significant improvement in survival; also recorded: significantly improved survival
same,fully protective at fold lower dose than RIF,"[4]; IV infection, RBT 0.1 or 0.3, RIF 10 or 30 mg/kg/daily for 3 days, printed 100X / 100×",100
same,survival,"[4]; bacteremia model, 10 mg/kg for 3 days, 2 days post infection, PBS/control 0%",about 100%
same,protection,"[4]; murine bacteremia, 0.1 mg/kg",fully protective
same,"protection, multiple doses",[5]; G. mellonella infection model,protective at significantly lower doses as compared to RIF
same,lowest efficacious dose (efficacious at doses as low as),"[5]; Galleria mellonella, dose-response",0.1 mg/kg
same,reduction in CFUs (time kill),[6],greater reduction in CFUs
